Target: T1, small-conductance Ca2+-activated K+ channels (SK channels, subtype 2) (Homo sapiens, UniProt Q9H2S1)
T1 construct: expressed in transfected cells; host or cells: HEK293
Test: whole-cell patch-clamp of ionic current through SK2 channels in HEK293 cells (SC100)
Format: cell-based
Settings: whole-cell patch-clamp, HEK293 cells expressing SK2 channels; concentration that increases the basal current by 100%
How it was run: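 SC100, the concentration doubling basal current (a 100% increase), was taken from SK2 currents recorded by whole-cell patch-clamp in SK2-expressing HEK293 cells.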

Row | Structure (SMILES) | SC100 (μM)
1 | Cc1csc(-c2nc(NC3CCC(F)(F)CC3)cc(OC3CCOCC3)n2)n1 [IN11079-007-P1] | + (+ means >1 uM)
2 | FC1(F)CCC(Nc2cc(N3CCOCC3)nc(-n3ccc(C(F)(F)F)n3)n2)CC1 [IN11079-009-P1, N-(4,4-difluorocyclohexyl)-6-morpholino-2-(3-(trifluoromethyl)-1H-pyrazol-1-yl)pyrimidin-4-amine] | ++ (++ means 200 nM-1000 nM)
3 | Cc1csc(-c2nc(NC3CCC(F)(F)CC3)cc(OC3CCOC3)n2)n1 (stereo not drawn) [IN11079-014-P1] | + (+ means >1 uM)
4 | Cc1csc(-c2nc(NC3CCC(F)(F)CC3)cc(OC3COC3)n2)n1 [IN11079-033-P1] | ++ (++ means 200 nM-1000 nM)
5 | CCOc1ccn(-c2nc(C)cc(NC3CCC(F)(F)CC3)n2)n1 [IN11079-040-P1, N-(4,4-difluorocyclohexyl)-2-(3-ethoxy-1H-pyrazol-1-yl)-6-methylpyrimidin-4-amine] | + (+ means >1 uM)
6 | Cc1csc(-c2cnc(NC3CCC(F)(F)CC3)c(C)n2)n1 [IN11079-047-P1, N-(4,4-difluorocyclohexyl)-3-methyl-5-(4-methylthiazol-2-yl) pyrazin-2-amine] | + (+ means >1 uM)
7 | Cc1cc(NC2CCC(F)(F)CC2)nc(-n2ccc(OCc3ccccc3)n2)n1 [IN11079-066-P1, 2-(3-(benzyloxy)-1H-pyrazol-1-yl)-N-(4,4-difluorocyclohexyl)-6-methyl pyrimidin-4-amine] | + (+ means >1 uM)
8 | Cc1cc(NC2CCC(F)(F)CC2)nc(-n2ccc(=O)[nH]2)n1 [IN11079-067-P1, 1-(4-((4,4-difluorocyclohexyl)amino)-6-methylpyrimidin-2-yl)-1H-pyrazol-3-ol] | + (+ means >1 uM)
9 | COc1cc(NC2CCSCC2)nc(-c2nc(C)cs2)n1 [IN11079-072-P1] | + (+ means >1 uM)
10 | Cc1ccn(-c2cc(CN3CCCOC3=O)cc(NC3CCC(F)(F)CC3)n2)n1 [IN11083-014-P1] | + (+ means >1 uM)
11 | Cc1csc(-c2cc(NC(=O)OC(C)(C)C)cc(NC3CCC(F)(F)CC3)n2)n1 [IN11083-048-P1, tert-butyl (2-((4,4-difluorocyclohexyl)amino)-6-(4-methylthiazol-2-yl)pyridin-4-yl) carbamate] | +++ (+++ means <200 nM)
12 | COc1c(NC2CCC(F)(F)CC2)nc(-c2nc(C)cs2)nc1C(C)O (stereo not drawn) [IN11104-039-P1, 1-(6-((4,4-difluorocyclohexyl)amino)-5-methoxy-2-(4-methylthiazol-2-yl)pyrimidin-4-yl)ethan-1-ol] | + (+ means >1 uM)
13 | COC(=O)NCCOc1nc(-c2nc(C)cs2)nc(NC2CCC(F)(F)CC2)c1OC [IN11104-041-P1] | ++ (++ means 200 nM-1000 nM)
14 | CC(=O)c1cc(NC2CCC(F)(F)CC2)cc(-c2nc(C)cs2)c1 [IN11104-059-P1, 1-(3-((4,4-difluorocyclohexyl)amino)-5-(4-methylthiazol-2-yl)phenyl) ethan-1-one] | + (+ means >1 uM)
15 | Cc1csc(-c2cc(NC3CCC(F)(F)CC3)cc(C(C)O)c2)n1 (stereo not drawn) [IN11104-077-P1, 1-(3-((4,4-difluorocyclohexyl)amino)-5-(4-methylthiazol-2-yl)phenyl) ethan-1-ol] | + (+ means >1 uM)
16 | COc1cc(NC2CCC3(CC2)COC3)nc(-c2nc(C)cs2)n1 [IN11104-084-P2] | + (+ means >1 uM)
17 | CC(=O)c1cc(N2CCOCC2)cc(NC2CCC(F)(F)CC2)n1 [IN11104-090-P1, 1-(6-((4,4-difluorocyclohexyl)amino)-4-morpholinopyridin-2-yl) ethan-1-one] | + (+ means >1 uM)
18 | Cc1csc(-c2nc(NC3CCC(F)(F)CC3)cc(C(C)C#N)n2)n1 (stereo not drawn) [IN11104-094-P1, 2-(6-((4,4-difluorocyclohexyl)amino)-2-(4-methylthiazol-2-yl)pyrimidin-4-yl) propanenitrile] | ++ (++ means 200 nM-1000 nM)
19 | Cc1nccc(-c2cc(N3CCOCC3)cc(NC3CCC(F)(F)CC3)n2)n1 [IN11104-095-P1, N-(4,4-difluorocyclohexyl)-6-(2-methylpyrimidin-4-yl)-4-morpholinopyridin-2-amine] | + (+ means >1 uM)
20 | COC(C)c1cc(N(C)C2CCC(F)(F)CC2)nc(-n2ccc(C3CC3)n2)n1 (stereo not drawn) [IN11104-100-P1, 2-(3-cyclopropyl-1H-pyrazol-1-yl)-N-(4,4-difluorocyclohexyl)-6-(1-methoxyethyl)-N-methylpyrimidin-4-amine] | + (+ means >1 uM)
21 | COc1cc(NC2CCOCC2)nc(-c2nc(C)cs2)n1 [IN11106-004-P1] | + (+ means >1 uM)
22 | COc1cc(NC2CCCOC2)nc(-c2nc(C)cs2)n1 (stereo not drawn) [IN11106-027-P1] | + (+ means >1 uM)
23 | COc1cc(NC2CCC3(CC2)CC3)nc(-c2nc(C)cs2)n1 [IN11106-033-P1] | + (+ means >1 uM)
24 | Cc1cc(NC2CCC(F)(F)CC2)nc(-n2ccc(C3CC3)n2)c1 [IN11106-062-P1, 6-(3-cyclopropyl-1H-pyrazol-1-yl)-N-(4,4-difluorocyclohexyl)-4-methylpyridin-2-amine] | +++ (+++ means <200 nM)

Row | Structure (SMILES) | SC100 (μM)
25 | CNC(=O)Oc1c(NC2CCC(F)(F)CC2)nc(-c2nc(C)cs2)nc1OC [IN11106-065-P1, 4-((4,4-difluorocyclohexyl)amino)-6-methoxy-2-(4-methylthiazol-2-yl)pyrimidin-5-yl methylcarbamate] | + (+ means >1 uM)
26 | Cn1cnc(COc2cc(NC3CCC(F)(F)CC3)nc(-n3ccc(C4CC4)n3)n2)n1 [IN11106-066-P1] | + (+ means >1 uM)
27 | Cc1csc(-c2nc(C)c(F)c(NC3CCC(F)(F)CC3)n2)n1 [IN11106-077-P1, N-(4,4-difluorocyclohexyl)-5-fluoro-6-methyl-2-(4-methylthiazol-2-yl)pyrimidin-4-amine] | ++ (++ means 200 nM-1000 nM)
28 | Cc1ccn(-c2nc(NC3CCC(F)(F)CC3)cc(N3CCNC(=O)C3)n2)n1 [IN11106-091-P1] | ++ (++ means 200 nM-1000 nM)
29 | Cc1ccn(-c2nc(NC3CC(F)(F)C3)cc(N3CCOCC3)n2)n1 [IN11107-020-P1] | + (+ means >1 uM)
30 | COc1cc(NCCC(C)(F)F)nc(-c2nc(C)cs2)n1 [IN11107-021-P1] | + (+ means >1 uM)
31 | COc1cc(NCCCC(C)(F)F)nc(-c2nc(C)cs2)n1 [IN11107-023-P1] | + (+ means >1 uM)
32 | COc1cc(NC2CC(F)(F)C2)nc(-n2nc(C)cc2C)n1 [IN11108-018-P1] | + (+ means >1 uM)
33 | Cc1cc(C)n(-c2nc(NC3CC(F)(F)C3)cc(N3CCOCC3)n2)n1 [IN11108-019-P1] | + (+ means >1 uM)
34 | COCc1cc(NC2CC(F)(F)C2)nc(-n2nc(C)cc2C)n1 [IN11108-038-P1, N-(3,3-difluorocyclobutyl)-2-(3,5-dimethyl-1H-pyrazol-1-yl)-6-(methoxymethyl)pyrimidin-4-amine] | + (+ means >1 uM)
35 | COc1cc(NC2CCC2)nc(-c2nc(C)cs2)n1 [IN11111-003-P1] | + (+ means >1 uM)
36 | COc1c(NC2CCC(F)(F)CC2)nc(-c2nc(C)cs2)nc1OCc1cnco1 [IN11111-021-P1] | ++ (++ means 200 nM-1000 nM)
37 | COc1c(NC2CCC(F)(F)CC2)nc(-c2nc(C)cs2)nc1OCCO [IN11111-023-P1] | + (+ means >1 uM)
38 | Cc1cccc(-c2cc(CO)cc(NC3CCC(F)(F)CC3)n2)n1 [IN11111-063-P1, (6-((4,4-difluorocyclohexyl)amino)-6′-methyl-[2,2′-bipyridin]-4-yl)methanol] | + (+ means >1 uM)
39 | OCc1cc(NC2CCC(F)(F)CC2)nc(-n2ccc(C3CC3)n2)c1 [IN11111-092-P1] | ++ (++ means 200 nM-1000 nM)
40 | Cc1ccn(-c2nc(NC3CCC(F)(F)CC3)cc(N3CCCOCC3)n2)n1 [IN11111-097-P1] | ++ (++ means 200 nM-1000 nM)
41 | Cc1ccn(-c2nc(NC3CCC(F)(F)CC3)c(F)c(N3CCOCC3)n2)n1 [IN11111-100-P1, N-(4,4-difluorocyclohexyl)-5-fluoro-2-(3-methyl-1H-pyrazol-1-yl)-6-morpholinopyrimidin-4-amine] | ++ (++ means 200 nM-1000 nM)
42 | CCOc1cc(NC2CCC(F)(F)CC2)nc(-n2nc(C)cc2C)n1 [IN11121-042-P1, N-(4,4-difluorocyclohexyl)-2-(3,5-dimethyl-1H-pyrazol-1-yl)-6-ethoxypyrimidin-4-amine] | + (+ means >1 uM)
43 | COc1c(NC2CCC(F)(F)CC2)nc(-c2nc(C)cs2)nc1N1CCOCC1 [IN11125-001-P1] | + (+ means >1 uM)
44 | CNC(=O)Oc1c(NC2CCC(F)(F)CC2)nc(-c2nc(C)cs2)[nH]c1=O [IN11125-006-P1, 4-((4,4-difluorocyclohexyl)amino)-6-hydroxy-2-(4-methylthiazol-2-yl)pyrimidin-5-yl methylcarbamate] | + (+ means >1 uM)
45 | COc1cc(C#N)cnc1OCc1cc(NC2CCC(F)(F)CC2)nc(-n2ccc(C)n2)c1 [IN11125-008-P1] | +++ (+++ means <200 nM)
46 | COc1nc(-c2nc(C)cs2)nc(NC2CCC(F)(F)CC2)c1OC [IN11125-010-P1] | ++ (++ means 200 nM-1000 nM)
47 | COCCOCc1cc(NC2CCC(F)(F)CC2)nc(-n2ccc(C)n2)c1 [IN11125-012-P1] | ++ (++ means 200 nM-1000 nM)
48 | Cc1csc(-c2nc(NC3CCC(F)(F)CC3)cc(OCc3ccon3)n2)n1 [IN11125-013-P1] | ++ (++ means 200 nM-1000 nM)
